Test results reported in patent US9980940B2, “Composition for the treatment of neuropathies and/or neuropathic pain” (Kolinpharma S.p.A., priority 2014, dated 2018).
“Also recorded” adds a separate entry of the source. Like-named read-outs stand apart in the source and are kept apart here.

Assays:
[1] = tested on: ROS produced by the THP-1 cells; assay: ROS assay (H2DCF-DA, flow cytometry), Example 2; type: cell-based, human; conditions: 24 h treatment then H2O2 100 μM 2 h; concentrations indicated in Table 7
Protocol: The antioxidant activity of the individual components and synergy between them was evaluated as efficiency of neutralization of the ROS produced by the THP-1 cells after application of an oxidizing agent: hydrogen peroxide (H2O2) at a concentration of 100 μM. The ROS were measured by the method described in Boulton S., Anderson A., Swalwell J., et al., 2011 Implications of using the fluorescent probes, dihydrorhodamine 123 and 2′,7′-dichlorodihydrofluorescein diacetate, for the detection of UV-A induced reactive oxygen species. […] The DCF produced is then quantified by reading with a flow cytometer and is proportional to the quantity of ROS present in the sample under examination. […]
After removal of the H2DCF-DA solution, the cells were washed, collected and the fluorescence of the DCF was measured by analysis with a Coulter Epics XL flow cytofluorimeter. At least ten thousand cells were analysed for each sample and the mean fluorescence intensity was quantified by the XL2 software of the instrument.
The parameter considered is MFI, mean fluorescence intensity, i.e. the geometric mean of the fluorescence intensity of the cells in which H2DCF-DA has been transformed into the fluorescein-treated DCF form, which is proportional to the amount of ROS per sample. […]

THP-1 human monocytes = conditions: 24 h
From the text: (§1) The MTT assay is a colorimetric cytotoxicity assay that makes it possible to test cellular proliferation and vitality based on the efficiency of mitochondrial respiration. MTT (3-(4,5-dimethylthiazol-2-yl)-2,5-diphenyl tetrazolium bromide) is a tetrazolium salt that is reduced by the highly reducing environment in the mitochondria of living cells by the action of mitochondrial dehydrogenase. Reduction of MTT causes formation of crystals of formazan that give the characteristic purple coloration to the mitochondria of living cells. […] Thus, although it is a test that evaluates cellular respiration, the MTT assay is considered to be an excellent method for determining cellular vitality.
(§2) As preparation for the test, the cells were sown uniformly in 96-well plates at a density of 5×10^4 cells per well and incubated at 37° C., with 5% CO2, and simultaneously, the cells were treated following serial dilutions (1:2) in order to identify the maximum non-cytotoxic concentration for each component.
(§3) The treatment was carried out for 24 hours. At the end, after brief washing in PBS, 20 μl of MTT (stock 5 mg/ml) in PBS was added to the THP-1 cells for 2 hours at 37° C. At the end of the incubation time, after removal from the medium and washing in PBS, 100 μl of DMSO was added for solubilization of the formazan crystals. Spectrophotometric reading was performed with a microplate reader (Tecan Sunrise) at a wavelength of 570 nm. The cellular vitality was calculated by measuring the optical density of the concentrations tested relative to the control (untreated cells).
as §1, with “leads to” for “causes”, “impart” for “give”, “regarded as” for “considered to be”
as §2, with “CO2” for “CO2,”, “at the same time” for “simultaneously,”, “with” for “following”
as §3, with “to dissolve” for “for solubilization of”

IL-1β [2] = assay: ELISA of IL-1β after LPS, Example 3; type: cell-based, human
Protocol: (§4) Possible anti-inflammatory activity of the individual components and synergy between them in THP-1 cells was evaluated after 24 hours of treatment and stimulation with a known pro-inflammatory agent (LPS), measuring expression of IL-1β and TNFα using an ELISA kit (Thermo Fisher Scientific, Inc.).
(§5) As preparation for the test, the THP-1 cells were sown uniformly in a 96-well plate at a density of 5×10^4 cells/well and treated with the maximum concentrations found to be non-cytotoxic in the MTT assay; untreated cells were used as negative control. Treatment was carried out at 37° C. at 5% CO2 for 20 h; then the sample was stimulated with LPS (component of the bacterial outer membrane, considered to be an inflammatory agent) for 4 hours.
(§6) At the end of the treatment, the supernatants were collected and used for coating a pretreated ELISA plate, supplied with the kit.
(§7) For analysis of the expression of both markers under examination (IL-1β and TNFα), a special kit is used that is based on the “sandwich” ELISA system in which a 96-well plate is coated with a monoclonal antibody specific to the particular cytokine.
The standards, prepared on the basis of the instructions in the protocol and used for constructing the calibration curve, and the samples are added to the wells and the cytokine of interest binds the capture antibody immobilized on the bottom of the well. Next, the biotinylated anti-cytokine antibody is added to the wells so that the biotinylated antibody-antigen-antibody “sandwich” is formed. […] Addition of a solution of sulphuric acid turns the colour of the solution from blue to yellow, blocking the reaction and allowing accurate reading of the absorbance of the samples at 450 nm.
The absorbance was then read at 450 and 550 nm using a microplate reader (Tecan Sunrise). The values obtained from the reading at 550 nm were subtracted from those at 450 nm to correct the optical imperfections of the microplate. […]

[3] = Solubility / dissolution of Xinepa and its ingredients
TNFα [4] = assay: ELISA of TNFα after LPS, Example 3; type: cell-based, human
Protocol: as §4, §5, §6, §7
The standards, prepared on the basis of the instructions in the protocol and used for constructing the calibration curve, and the samples are added to the wells and the cytokine of interest binds the capture antibody immobilized on the bottom of the well. […] Addition of a solution of sulphuric acid turns the colour of the solution from blue to yellow, blocking the reaction and allowing accurate reading of the absorbance of the samples at 450 nm.
The absorbance was then read at 450 and 550 nm using a microplate reader (Tecan Sunrise). The values obtained from the reading at 550 nm were subtracted from those at 450 nm to correct the optical imperfections of the microplate.
The possible anti-inflammatory action of the individual components of Xinepa and the possible synergy were evaluated by measuring the levels of TNFα following stimulation with LPS. […]

THP-1 cell line = conditions: curcumin (Sigma, commercial); Hsu et al. 2008; cited from earlier work
TNFα [5] = assay: ELISA assay (Assay 1a), release of TNFα; type: cell-based, human; conditions: positive controls; LPS 1 μg/ml 2 h
THP-1 cells = assay: MTT assay (Assay 0), cellular vitality; type: cell-based, human; conditions: positive controls at 100 μM
Protocol: The cells were kept in an incubator at 37° C. and 5% CO2 and sown every 3-4 days at a density of about 5×10^5 cells/ml.
This colorimetric assay is based on the transformation of tetrazolium salt MTT (yellow) to formazan (violet), by the reductase succinate-tetrazolium system, which belongs to the respiratory chain of the mitochondria and is only active in metabolically active cells. Briefly, the cells grown in a 96-well plate were incubated with the solution of MTT for 4 hours. […] The absorbance measured correlates directly with the number of live cells.
To exclude a possible toxic effect attributable to the incubation protocol selected, cellular vitality was quantified by the MTT assay.

IL-1β [6] = assay: ELISA assay (Assay 1a), release of IL-1β; type: cell-based, human; conditions: positive controls; LPS 1 μg/ml 2 h
[7] = tested on: reactive oxygen species (ROS) in THP-1 cells; assay: Intracellular levels of ROS (Assay 2), CellROX Deep Red; type: cell-based, human; conditions: positive control; 100 mM H2O2 2 h; not significantly different from its vehicle control
Protocol: The operating principle of the probe is based on the fact that it is not fluorescent in the reduced state, whereas following oxidation it develops a fluorescent signal with excitation peak at 640 nm and emission peak at 665 nm. Briefly, at the end of the period of stimulation with H2O2, the cells were incubated with CellROX® Deep Red Reagent at a final concentration of 5 μM in the medium at 37° C. for 30 min. The nuclei were labelled with Hoechst33342 and the fluorescences of both channels (CellROX® Deep Red and DAPI) were read on the GloMax plate fluorometer (Promega Italy). The fluorescence signals relating to the ROS were normalized for the signal of Hoechst33342 to cancel the variability in the fluorescence signal read due to the number of cells present in each well.
The same plates were then also acquired in the confocal microscope for the purpose of obtaining representative images relating to quantifications of the various treatments.

[8] = 24-hour treatment and stimulation with LPS
[9] = relative to stimulated untreated cells (Ctrl + LPS = 100)

Question: What does the source list for `CC(=O)O[C@H](CC(=O)[O-])C[N+](C)(C)C` [Component C]?
Answer: levels of ROS [1]: comparable to those of the positive control; Cellular vitality (%) (THP-1 human monocytes; N-Acetyl-L-carnitine 0.25 mg/ml): 102.221%; Cellular vitality (%) (THP-1 human monocytes; N-Acetyl-L-carnitine 0.5 mg/ml): 97.615%; Cellular vitality (%) (THP-1 human monocytes; N-Acetyl-L-carnitine 1 mg/ml): 90.355%; Cellular vitality (%) (THP-1 human monocytes; N-Acetyl-L-carnitine 2 mg/ml): 91.422%; Cellular vitality (%) (THP-1 human monocytes; N-Acetyl-L-carnitine 4 mg/ml): 60.848%; Maximum non-cytotoxic concentration (THP-1 human monocytes; components A, B, C tested individually (lipoic acid, vitamin C, vitamin E acetate together as component B), mortality not greater than 30%): 2 mg/mL; Non-cytotoxic concentration (THP-1 human monocytes; each component when tested together (A + B + C)): 0.01 mg/mL; levels of IL-1β vs stimulated control (IL-1β [2]; [8]): increase; IL-1β (IL-1β [2]; 24 h treatment at non-cytotoxic concentrations incl. LPS 4 h, Ctrl + LPS 4.84): 4.98 pg/mL; IL-1β (%) (IL-1β [2]; [9]): 102.91%; dissolution in complete medium ([3]; RPMI medium with 10% FBS, L-glutamine 2 mM and antibiotics): did not cause problems in dissolution; also recorded: did not cause problems of dissolution; levels of TNFα vs stimulated control (TNFα [4]; [8]): levels lower than the stimulated control; TNFα (TNFα [4]; 24 h treatment at non-cytotoxic concentrations, LPS 4 h, Ctrl + LPS 424.12): 386.98 pg/mL; TNFα (%) (TNFα [4]; [9]): 91.24%

Question: Which “Maximum non-cytotoxic concentration” value (THP-1 human monocytes; human) does the source give for `O=C(O)CCCCC1CCSS1` (stereo not drawn) [Lipoic acid, Alpha-lipoic acid] here?
Answer: The value was 0.3750 mg/mL.

Question: For `COc1cc(/C=C/C(=O)CC(=O)/C=C/c2ccc(O)c(OC)c2)ccc1O` [curcumin, (1E,6E)-1,7-bis(4-hydroxy-3-methoxyphenyl)-hepta-1,6-diene-3,5-dione], which “non-cytotoxic concentration found for curcumin” value (THP-1 cell line) is on record?
Answer: Its value is 10 µM.

Question: With `CC(C)Cc1ccc(C(C)C(=O)O)cc1` (stereo not shown) [ibuprofen] as the molecule, how does the “release of TNFα relative to control” value (TNFα [5]) read?
Answer: Its value is “did not cause any reduction”.

Question: What about the “toxicity on the cells (MTT)” value (THP-1 cells) of the same molecule?
Answer: Its value is “did not identify any effect of toxicity”.

Question: What about the “release of IL-1β relative to control” value (IL-1β [6]) of the same molecule?
Answer: Its value is “did not have any effect”.

Question: Which results are given for `CS(=O)(=O)Nc1ccc([N+](=O)[O-])cc1Oc1ccccc1` [nimesulide]?
Answer: release of TNFα relative to control (TNFα [5]): showed anti-inflammatory action; toxicity on the cells (MTT) (THP-1 cells): did not identify any effect of toxicity; release of IL-1β relative to control (IL-1β [6]): effective in reducing the release of IL-1β

Question: Which “solubility of individual ingredients” value ([3]; water vs alcohols or organic solvents) does the source give for `Cc1cc2nc3c(=O)[nH]c(=O)nc-3n(C[C@H](O)[C@H](O)[C@H](O)CO)c2cc1C` [vitamin B2, riboflavin] here?
Answer: The value was “soluble in water but not in alcohols”.

Question: Which “antioxidant action (ROS levels)” value [7] does the source give for tocopherol [vitamin E] here?
Answer: The value was “partial antioxidant action”.
